{"source": "ChEMBL document CHEMBL1201862", "about": "“PubChem BioAssay data set” (2004)", "assay_in_all_cases": "NCI anticancer screen, dose series, 48 h", "key": {"[1]": {"system": "SF-539"}, "[2]": {"system": "XF498"}, "[3]": {"system": "DMS-114"}, "[4]": {"system": "COLO 205"}, "[5]": {"system": "KM12"}, "[6]": {"system": "SNB-75"}, "[7]": {"system": "M19-MEL"}, "[8]": {"system": "SK-MEL-28"}, "[9]": {"system": "DLD-1"}, "[10]": {"system": "IGROV-1"}, "[11]": {"system": "OVCAR-5"}, "[12]": {"system": "SK-OV-3"}, "[13]": {"system": "UACC-62"}, "[14]": {"system": "RXF 631"}, "[15]": {"system": "A498"}, "[16]": {"system": "U-251"}, "[17]": {"system": "HL-60"}, "[18]": {"system": "LXFL 529"}, "[19]": {"system": "SF-295"}, "[20]": {"system": "NCI-H460"}, "[21]": {"system": "SF-268"}, "[22]": {"system": "HCT-15"}, "[23]": {"system": "OVCAR-4"}, "[24]": {"system": "SNB-78"}, "[25]": {"system": "MOLT-4"}, "[26]": {"system": "SK-MEL-2"}, "[27]": {"system": "HT-29"}, "[28]": {"system": "SK-MEL-5"}, "[29]": {"system": "SN12C"}, "[30]": {"system": "M14"}, "[31]": {"system": "HCC 2998"}, "[32]": {"system": "EKVX"}, "[33]": {"system": "K562"}, "[34]": {"system": "A549"}, "[35]": {"system": "LOX IMVI"}, "[36]": {"system": "NCI-H522"}, "[37]": {"system": "HOP-92"}, "[38]": {"system": "DMS-273"}, "[39]": {"system": "786-0"}, "[40]": {"system": "HCT-116"}, "[41]": {"system": "TK-10"}, "[42]": {"system": "KM-20L2"}, "[43]": {"system": "UACC-257"}, "[44]": {"system": "OVCAR-3"}, "[45]": {"system": "CCRF-CEM"}, "[46]": {"system": "OVCAR-8"}, "[47]": {"system": "NCI-H23"}, "[48]": {"system": "UO-31"}, "[49]": {"system": "SNB-19"}, "[50]": {"system": "HOP-62"}, "[51]": {"system": "SR"}, "[52]": {"system": "Malme-3M"}, "[53]": {"system": "ACHN"}, "[54]": {"system": "SW-620"}, "[55]": {"system": "RXF 393"}, "[56]": {"system": "RPMI-8226"}, "[57]": {"system": "NCI-H226"}, "[58]": {"system": "CAKI-1"}}, "note": "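Five concentrations, 48 hours, 96-well plates. The concentration for 50% growth inhibition is given as GI50.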 The source made the active and inactive calls. No stated cut-off is given here; in the data, active = GI50 up to about 1.1 µM and inactive = higher."}
{"smiles": "O=C(O)c1oc2cccc3c2c1CCC3", "values": [{"measurement": "GI50", "setting": "[1]", "value": "> 100 µM (inactive)"}, {"measurement": "GI50", "setting": "[2]", "value": "> 100 µM (inactive)"}, {"measurement": "GI50", "setting": "[3]", "value": "> 100 µM (inactive)"}, {"measurement": "GI50", "setting": "[4]", "value": "> 100 µM (inactive)"}, {"measurement": "GI50", "setting": "[5]", "value": "> 100 µM (inactive)"}, {"measurement": "GI50", "setting": "[6]", "value": "99.3 µM (inactive)"}, {"measurement": "GI50", "setting": "[7]", "value": "> 100 µM (inactive)"}, {"measurement": "GI50", "setting": "[8]", "value": "> 100 µM (inactive)"}, {"measurement": "GI50", "setting": "[9]", "value": "> 100 µM (inactive)"}, {"measurement": "GI50", "setting": "[10]", "value": "> 100 µM (inactive)"}, {"measurement": "GI50", "setting": "[11]", "value": "> 100 µM (inactive)"}, {"measurement": "GI50", "setting": "[12]", "value": "> 100 µM (inactive)"}, {"measurement": "GI50", "setting": "[13]", "value": "41.7 µM (inactive)"}, {"measurement": "GI50", "setting": "[14]", "value": "> 100 µM (inactive)"}, {"measurement": "GI50", "setting": "[15]", "value": "> 100 µM (inactive)"}, {"measurement": "GI50", "setting": "[16]", "value": "> 100 µM (inactive)"}, {"measurement": "GI50", "setting": "[17]", "value": "> 100 µM (inactive)"}, {"measurement": "GI50", "setting": "[18]", "value": "> 100 µM (inactive)"}, {"measurement": "GI50", "setting": "[19]", "value": "> 100 µM (inactive)"}, {"measurement": "GI50", "setting": "[20]", "value": "> 100 µM (inactive)"}, {"measurement": "GI50", "setting": "[21]", "value": "> 100 µM (inactive)"}, {"measurement": "GI50", "setting": "[22]", "value": "> 100", "unit": "µM"}, {"measurement": "GI50", "setting": "[23]", "value": "> 100 µM (inactive)"}, {"measurement": "GI50", "setting": "[24]", "value": "> 100 µM (inactive)"}, {"measurement": "GI50", "setting": "[25]", "value": "> 100 µM (inactive)"}, {"measurement": "GI50", "setting": "[26]", "value": "> 100 µM (inactive)"}, {"measurement": "GI50", "setting": "[27]", "value": "> 100 µM (inactive)"}, {"measurement": "GI50", "setting": "[28]", "value": "> 100 µM (inactive)"}, {"measurement": "GI50", "setting": "[29]", "value": "> 100 µM (inactive)"}, {"measurement": "GI50", "setting": "[30]", "value": "> 100 µM (inactive)"}, {"measurement": "GI50", "setting": "[31]", "value": "> 100 µM (inactive)"}, {"measurement": "GI50", "setting": "[32]", "value": "> 100 µM (inactive)"}, {"measurement": "GI50", "setting": "[33]", "value": "> 100 µM (inactive)"}, {"measurement": "GI50", "setting": "[34]", "value": "> 100 µM (inactive)"}, {"measurement": "GI50", "setting": "[35]", "value": "> 100 µM (inactive)"}, {"measurement": "GI50", "setting": "[36]", "value": "> 100 µM (inactive)"}, {"measurement": "GI50", "setting": "[37]", "value": "> 100 µM (inactive)"}, {"measurement": "GI50", "setting": "[38]", "value": "> 100 µM (inactive)"}, {"measurement": "GI50", "setting": "[39]", "value": "> 100 µM (inactive)"}, {"measurement": "GI50", "setting": "[40]", "value": "> 100 µM (inactive)"}, {"measurement": "GI50", "setting": "[41]", "value": "> 100 µM (inactive)"}, {"measurement": "GI50", "setting": "[42]", "value": "> 10 µM (inactive)"}, {"measurement": "GI50", "setting": "[43]", "value": "> 100 µM (inactive)"}, {"measurement": "GI50", "setting": "[44]", "value": "> 100 µM (inactive)"}, {"measurement": "GI50", "setting": "[45]", "value": "> 100 µM (inactive)"}, {"measurement": "GI50", "setting": "[46]", "value": "> 100 µM (inactive)"}, {"measurement": "GI50", "setting": "[47]", "value": "> 100 µM (inactive)"}, {"measurement": "GI50", "setting": "[48]", "value": "12.8 µM (inactive)"}, {"measurement": "GI50", "setting": "[49]", "value": "> 100 µM (inactive)"}, {"measurement": "GI50", "setting": "[50]", "value": "> 100 µM (inactive)"}, {"measurement": "GI50", "setting": "[51]", "value": "> 100 µM (inactive)"}, {"measurement": "GI50", "setting": "[52]", "value": "> 100 µM (inactive)"}, {"measurement": "GI50", "setting": "[53]", "value": "> 100 µM (inactive)"}, {"measurement": "GI50", "setting": "[54]", "value": "> 100 µM (inactive)"}, {"measurement": "GI50", "setting": "[55]", "value": "> 100 µM (inactive)"}, {"measurement": "GI50", "setting": "[56]", "value": "> 100 µM (inactive)"}]}
{"smiles": "COC(=O)CSc1nnc(-c2ccc(O)c([N+](=O)[O-])c2)[nH]1", "values": [{"measurement": "GI50", "setting": "[1]", "value": "> 100 µM (inactive)"}, {"measurement": "GI50", "setting": "[2]", "value": "> 100 µM (inactive)"}, {"measurement": "GI50", "setting": "[6]", "value": "> 100 µM (inactive)"}, {"measurement": "GI50", "setting": "[8]", "value": "> 100 µM (inactive)"}, {"measurement": "GI50", "setting": "[9]", "value": "> 100 µM (inactive)"}, {"measurement": "GI50", "setting": "[10]", "value": "> 100 µM (inactive)"}, {"measurement": "GI50", "setting": "[11]", "value": "> 100 µM (inactive)"}, {"measurement": "GI50", "setting": "[13]", "value": "> 100 µM (inactive)"}, {"measurement": "GI50", "setting": "[14]", "value": "> 100 µM (inactive)"}, {"measurement": "GI50", "setting": "[15]", "value": "> 100 µM (inactive)"}, {"measurement": "GI50", "setting": "[16]", "value": "> 100 µM (inactive)"}, {"measurement": "GI50", "setting": "[17]", "value": "> 100 µM (inactive)"}, {"measurement": "GI50", "setting": "[18]", "value": "> 100 µM (inactive)"}, {"measurement": "GI50", "setting": "[19]", "value": "> 100 µM (inactive)"}, {"measurement": "GI50", "setting": "[20]", "value": "> 100 µM (inactive)"}, {"measurement": "GI50", "setting": "[21]", "value": "> 100 µM (inactive)"}, {"measurement": "GI50", "setting": "[22]", "value": "> 100", "unit": "µM"}, {"measurement": "GI50", "setting": "[23]", "value": "> 100 µM (inactive)"}, {"measurement": "GI50", "setting": "[25]", "value": "> 100 µM (inactive)"}, {"measurement": "GI50", "setting": "[26]", "value": "> 100 µM (inactive)"}, {"measurement": "GI50", "setting": "[27]", "value": "> 100 µM (inactive)"}, {"measurement": "GI50", "setting": "[28]", "value": "> 100 µM (inactive)"}, {"measurement": "GI50", "setting": "[29]", "value": "> 100 µM (inactive)"}, {"measurement": "GI50", "setting": "[30]", "value": "> 100 µM (inactive)"}, {"measurement": "GI50", "setting": "[31]", "value": "> 100 µM (inactive)"}, {"measurement": "GI50", "setting": "[32]", "value": "> 100 µM (inactive)"}, {"measurement": "GI50", "setting": "[33]", "value": "> 100 µM (inactive)"}, {"measurement": "GI50", "setting": "[34]", "value": "> 100 µM (inactive)"}, {"measurement": "GI50", "setting": "[35]", "value": "> 100 µM (inactive)"}, {"measurement": "GI50", "setting": "[37]", "value": "> 100 µM (inactive)"}, {"measurement": "GI50", "setting": "[38]", "value": "> 100 µM (inactive)"}, {"measurement": "GI50", "setting": "[39]", "value": "> 100 µM (inactive)"}, {"measurement": "GI50", "setting": "[40]", "value": "> 100 µM (inactive)"}, {"measurement": "GI50", "setting": "[41]", "value": "> 100 µM (inactive)"}, {"measurement": "GI50", "setting": "[42]", "value": "> 100 µM (inactive)"}, {"measurement": "GI50", "setting": "[43]", "value": "> 100 µM (inactive)"}, {"measurement": "GI50", "setting": "[44]", "value": "> 100 µM (inactive)"}, {"measurement": "GI50", "setting": "[45]", "value": "> 100 µM (inactive)"}, {"measurement": "GI50", "setting": "[46]", "value": "> 100 µM (inactive)"}, {"measurement": "GI50", "setting": "[47]", "value": "> 100 µM (inactive)"}, {"measurement": "GI50", "setting": "[48]", "value": "> 100 µM (inactive)"}, {"measurement": "GI50", "setting": "[49]", "value": "> 100 µM (inactive)"}, {"measurement": "GI50", "setting": "[51]", "value": "> 100 µM (inactive)"}, {"measurement": "GI50", "setting": "[52]", "value": "> 100 µM (inactive)"}, {"measurement": "GI50", "setting": "[57]", "value": "> 100 µM (inactive)"}, {"measurement": "GI50", "setting": "[58]", "value": "> 100 µM (inactive)"}, {"measurement": "GI50", "setting": "[53]", "value": "> 100 µM (inactive)"}, {"measurement": "GI50", "setting": "[54]", "value": "> 100 µM (inactive)"}, {"measurement": "GI50", "setting": "[55]", "value": "> 100 µM (inactive)"}, {"measurement": "GI50", "setting": "[56]", "value": "> 100 µM (inactive)"}]}
